# Results taken from US20050208149A1, “Use of arsenic-containing pharmaceutical composition in combination with radiation therapy for cancer treatment” (TTY Biopharm Limited Company, priority 2004, published 2005).
# Several values for one entry are separate records, joined by “and”; a condition that tells them apart may be missing. Equal entries are not always repeated.
# Assays:
# [1] = Wang Z. Y. 2001; cited from earlier work
# [2] = test system: breast cancer patients with superficial fungating or skin-infiltrating tumors; experiment: Assessment of response: topical As2O3 gel plus electron beam radiotherapy; assay type: in vivo, human; design: key to Tumor response: Complete: A complete response was defined as the disappearance of all known skin lesions within radiation fields confirmed by subsequent observation at least 4 weeks apart; Partial: a decrease in the sum of the maximal perpendicular diameters for involved skin area within radiation fields by more than 50%; Progressive: at least 25% increase in the sum of the maximal perpendicular diameters for involved skin area or the appearance of new lesions within radiation fields; Stable: All other tumor outcomes were classified as stable disease; settings: for Reduction in VAS for skin pain: 100-mm scale
# Description: (§1) Between December 2001 and March 2003, seven patients of breast cancer with superficial fungating or skin-infiltrating tumors who had undergone standard treatments received topical As2O3 and radiotherapy at Mackay Memorial Hospital (Table 3). Eligibility criteria for the study included diagnosis of breast cancer confirmed by pathological examination. In addition, patients had to have relapsed after standard treatments such as surgery, radiation therapy or chemotherapy. Six patients had received post-operative radiation to the chest wall and axillary area. Written informed consent was required, and the study protocol was viewed and approved by the institutional review board of the Mackay Memorial Hospital.
# (§2) As2O3 gel prepared by Example 2 was administered in daily topical doses that ranged from 0.01 to 0.5 mg/cm2/day, preferred from 0.05-0.15 mg/cm2/day. The gel was administered 1 h prior to the daily radiation treatment and was subsequently removed 5 min prior to the radiation exposure. Electron beam radiotherapy was delivered using a linear accelerator (9-12 MeV, dose rate 2.4 Gy/min; Clinac 1800; Varian Associates, Palo Alto, Calif.). Radiation was administered 5 days a week (total dose: 50 Gy in 25 fractions or 30 Gy in 10 fractions).
# Observation for tumor response and skin reaction was conducted daily, with photographs taken weekly. A complete response was defined as the disappearance of all known skin lesions within radiation fields confirmed by subsequent observation at least 4 weeks apart. A partial response was defined as a decrease in the sum of the maximal perpendicular diameters for involved skin area within radiation fields by more than 50% which was confirmed by subsequent observation at least 4 weeks apart. Progressive disease was defined as at least 25% increase in the sum of the maximal perpendicular diameters for involved skin area or the appearance of new lesions within radiation fields. All other tumor outcomes were classified as stable disease. For efficacy of pain control, chest wall pain was estimated using a visual analog scale (VAS) as a subjective assessment. The VAS scores before treatment were set as the baseline for every patient, and we compared the changes between subsequent data after treatment and the baseline data. When differences were greater than 50 mm in a 100-mm scale, we identified this patient as a responder. The daily need for changing dressings (CD) of wounds was also recorded by nurses in charge of each patient.
# [3] = test system: breast cancer patients with superficial fungating or skin-infiltrating tumors; experiment: Monitoring for adverse effects (CTC version 2.0) during combined topical As2O3 and radiation treatment; assay type: in vivo, human; settings: for Acute radiation dermatitis, case number / Anorexia, case number / Chronic radiation dermatitis, case number / Fatigue, case number / Granulocytosis, case number / Hyperpigmentation, case number / Leukopenia, case number / Nausea, case number / Thrombocytopenia, case number / Vomit, case number: of 7 patients, topical As2O3 + radiation
# Description: as §1, §2
# With regard to drug absorption via skin, possible systemic adverse effects were evaluated. Serial blood counts and serum chemistry profiles were performed. Serum chemistry profiles, including alanine aminotransferase, aspartate aminotransferase, blood urine nitrogen and creatinine, were measured using a Synchron LX20 spectrophotometer (Beckman Coulter, San Diego, Calif.). An electrocardiogram was recorded before and after irradiation for each patient. Adverse effect and toxicity were evaluated according to the Common Toxicity Criteria (CTC) version 2.0 published by the DCTD, NCI, NIH and DHHS in 1999.
# [4] = test system: cutaneous metastatic breast cancer; settings: topical As2O3 alone; Cheng 2003; cited from earlier work
# [5] = test system: human cervical cancer cells; settings: As2O3 pre-treatment in combination with ionizing radiation; Chun 2002; cited from earlier work
# [6] = test system: human cervical tumor xenografts; settings: As2O3 pre-treatment in combination with ionizing radiation; Chun 2002; cited from earlier work
# [7] = combination of topical As2O3 and radiation, pilot study, seven patients
# [8] = patient 1, skin infiltration, topical As2O3 gel + radiation 50 Gy
# [9] = patient 2, skin infiltration, topical As2O3 gel + radiation 50 Gy
# [10] = patient 3, skin infiltration, topical As2O3 gel + radiation 50 Gy
# [11] = patient 4, fungating tumor, topical As2O3 gel + radiation 50 Gy
# [12] = patient 5, fungating tumor, topical As2O3 gel + radiation 50 Gy
# [13] = patient 6, fungating tumor, topical As2O3 gel + radiation 30 Gy
# [14] = patient 7, fungating tumor, topical As2O3 gel + radiation 50 Gy
compound,measurement,setting,value
"S1[As]2S[As]3S[As]2S[As]13 [As4S4, tetraarsenic tetraslfide]",Complete remission rate,[1],84.9%
arsenic trioxide [As2O3],Change in mean daily needed CD frequency,"[2]; after treatment for 1 month, all superficial and fungating wounds",4.4 to 0.9
same,"Number of patients resistant, classified as stable disease","[2]; chest wall fungating tumor, of seven patients, combined therapy",One
same,Number of patients with partial remission,"[2]; chest wall fungating tumors, of seven patients, combined therapy",three
same,Number of patients with complete remission,"[2]; chest wall skin-infiltrating lesions, of seven patients, combined therapy",three
same,"Clinical response rate, complete remission",[2]; [7],42.9%
same,"Clinical response rate, partial remission",[2]; [7],42.9%
same,Number of patients with relief of chest wall pain assessed by VAS,"[2]; of seven patients, combined therapy",seven
same,Tumor response,[2]; [8],Complete
same,Reduction in VAS for skin pain,[2]; [8],75 mm
same,Tumor response,[2]; [9],Complete
same,Reduction in VAS for skin pain,[2]; [9],65 mm
same,Tumor response,[2]; [10],Complete
same,Reduction in VAS for skin pain,[2]; [10],80 mm
same,Tumor response,[2]; [11],Partial (a decrease in the sum of the maximal perpendicular diameters for involved skin area within radiation fields by more than 50%)
same,Reduction in VAS for skin pain,[2]; [11],70 mm
same,Tumor response,[2]; [12],Partial (a decrease in the sum of the maximal perpendicular diameters for involved skin area within radiation fields by more than 50%)
same,Reduction in VAS for skin pain,[2]; [12],65 mm
same,Tumor response,[2]; [13],Partial (a decrease in the sum of the maximal perpendicular diameters for involved skin area within radiation fields by more than 50%)
same,Reduction in VAS for skin pain,[2]; [13],75 mm
same,Tumor response,[2]; [14],Stable
same,Reduction in VAS for skin pain,[2]; [14],55 mm
same,Cumulative radiation dosage for remission of chest wall skin lesions,"[2]; the three patients with complete remission, respectively",20 Gy and 22 Gy and 28 Gy
same,"Acute radiation dermatitis, case number",[3]; CTC grade 0,1
same,"Anorexia, case number",[3]; CTC grade 0,4
same,"Chronic radiation dermatitis, case number",[3]; CTC grade 0,4
same,"Fatigue, case number",[3]; CTC grade 0,3
same,"Granulocytosis, case number",[3]; CTC grade 0,6
same,"Hyperpigmentation, case number",[3]; CTC grade 0,7
same,"Leukopenia, case number",[3]; CTC grade 0,7
same,"Nausea, case number",[3]; CTC grade 0,4
same,"Thrombocytopenia, case number",[3]; CTC grade 0,7
same,"Vomit, case number",[3]; CTC grade 0,6
same,"Acute radiation dermatitis, case number",[3]; CTC grade 1,1
same,"Anorexia, case number",[3]; CTC grade 1,2
same,"Chronic radiation dermatitis, case number",[3]; CTC grade 1,2
same,"Fatigue, case number",[3]; CTC grade 1,2
same,"Granulocytosis, case number",[3]; CTC grade 1,1
same,"Hyperpigmentation, case number",[3]; CTC grade 1,0
same,"Leukopenia, case number",[3]; CTC grade 1,0
same,"Nausea, case number",[3]; CTC grade 1,2
same,"Thrombocytopenia, case number",[3]; CTC grade 1,0
same,"Vomit, case number",[3]; CTC grade 1,1
same,"Acute radiation dermatitis, case number",[3]; CTC grade 2,3
same,"Anorexia, case number",[3]; CTC grade 2,1
same,"Chronic radiation dermatitis, case number",[3]; CTC grade 2,1
same,"Fatigue, case number",[3]; CTC grade 2,2
same,"Granulocytosis, case number",[3]; CTC grade 2,0
same,"Hyperpigmentation, case number",[3]; CTC grade 2,0
same,"Leukopenia, case number",[3]; CTC grade 2,0
same,"Nausea, case number",[3]; CTC grade 2,1
same,"Thrombocytopenia, case number",[3]; CTC grade 2,0
same,"Vomit, case number",[3]; CTC grade 2,0
same,"Acute radiation dermatitis, case number",[3]; CTC grade 3,2
same,"Anorexia, case number",[3]; CTC grade 3,0
same,"Chronic radiation dermatitis, case number",[3]; CTC grade 3,0
same,"Fatigue, case number",[3]; CTC grade 3,0
same,"Granulocytosis, case number",[3]; CTC grade 3,0
same,"Leukopenia, case number",[3]; CTC grade 3,0
same,"Nausea, case number",[3]; CTC grade 3,0
same,"Thrombocytopenia, case number",[3]; CTC grade 3,0
same,"Vomit, case number",[3]; CTC grade 3,0
same,"Acute radiation dermatitis, case number",[3]; CTC grade 4,0
same,"Anorexia, case number",[3]; CTC grade 4,0
same,"Chronic radiation dermatitis, case number",[3]; CTC grade 4,0
same,"Fatigue, case number",[3]; CTC grade 4,0
same,"Granulocytosis, case number",[3]; CTC grade 4,0
same,"Leukopenia, case number",[3]; CTC grade 4,0
same,"Thrombocytopenia, case number",[3]; CTC grade 4,0
same,"Vomit, case number",[3]; CTC grade 4,0
same,Time to satisfactory healing of grade 3 acute radiation dermatitis,[3]; after completion of the radiation treatment,2-3 weeks
same,Hematological changes,[3]; combined treatment,no significant hematological changes were observed
same,Number of patients with grade 3 acute radiation dermatitis (most severe observed),[3]; combined treatment,two
same,Other adverse reactions,[3]; combined treatment,light-headedness during irradiation and moderate fatigue after radiation
same,Patients developing grade 3 chronic radiation dermatitis,[3]; combined treatment,none
same,Performance status,[3]; combined treatment,no changes in performance status were evident
same,Dermatological toxicity such as skin rash,"[3]; daily application less than 1 h, treatment not more than 5 weeks",we did not note any toxicity of this type
same,Grade 2-4 granulocytosis or leukopenia,[3]; during the combined therapy,No grade 2-4 granulocytosis or leukopenia was noted
same,"Skin pigmentation, renal or hepatic function",[3]; during the course of the combined treatment,no skin pigmentation or significant changes in renal or hepatic function
same,Local tumor control and wound secretion,[4],improved local tumor control and decreased wound secretion
same,"Systemic absorption, pharmacokinetic study",[4],no significant systemic absorption
same,Systemic or local adverse effects,[4],without significant systemic or local adverse effects
same,Effect on decreased clonogenic survival,[5],synergistic effect
same,Effect on regression of established xenografts,[6],synergistic effect
